Assays:
[1] = target: T1, interleukin-1β converting enzyme (ICE) (Homo sapiens, UniProt P29466); assay: ICE activity by the procedure of Thornberry et al. (1992); type: biochemical
T1 sequence (P29466 120-297 limits assumed): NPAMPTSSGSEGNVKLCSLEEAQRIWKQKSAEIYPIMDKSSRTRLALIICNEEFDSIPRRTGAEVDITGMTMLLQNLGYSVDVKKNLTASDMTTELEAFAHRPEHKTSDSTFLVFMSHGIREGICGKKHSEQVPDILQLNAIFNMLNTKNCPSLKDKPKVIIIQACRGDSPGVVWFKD
T1 sequence (P29466 317-404 limits assumed): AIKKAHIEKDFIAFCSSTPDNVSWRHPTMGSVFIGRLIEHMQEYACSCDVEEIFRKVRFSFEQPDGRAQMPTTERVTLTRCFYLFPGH
Experimental: Assay for assessing the ICE activity of compound of Formula I
Gamma-pyrone-3-acetic acid was assessed for ICE activity by the procedure of Thomberry, et al (1992) Nature Vol. 356 pp 768-774.

[2] = Solubility of isolated material; type: physicochemical
Experimental: Compound was isolated further by purification using HPLC. Two mL of filtered solution was passed through a C4 radial compression column (25×100 mm, WATERS ASSOCIATES) and an isocratic flow rate of 10 mL per minute of water was used to elute the active compound. A total of 5 runs were performed with fractions being collected at one minute intervals. The fractions were tested for ICE-activity. The active fractions eluted between 9-10 minutes. The ICE-active-rich cuts from each run were pooled and lyophilized. The resulting material appeared to be an oily brown substance that was soluble in water, methanol, and DMSO. Estimates of 7 mg of compound can be isolated from 300 ml of whole broth.

IC50 ([1]; pH 6.5 and 1 mM DDT): 1300 nM | IC50 ([1]; pH 7:5 and 1 mM DDT): 4540 nM | solubility in DMSO ([2]; DMSO): soluble | solubility in methanol ([2]; methanol): soluble | solubility in water ([2]; water): soluble
Compound: O=C(O)Cc1coccc1=O [Gamma-pyrone-3-acetic acid, gamma-pyrone-3-acetic acid]

Source: patent US5411985A, “Gamma-pyrone-3-acetic acid as an inhibitor or interleukin-1 β inventory enzyme” (Merck & Co., Inc., priority 1993, dated 1995)
